Tested on: Mycobacterium tuberculosis H37Rv growth inhibition, no glycerol
Test: Confirmatory growth inhibition assay, Mycobacterium tuberculosis H37Rv, absence of glycerol (AID 449764);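 note: growth read after 7 days of incubation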
Details: for IC90: measured here: IC90 growth inhibition

Row | Structure (SMILES) | IC50 [µM] | IC90 [µM]
1 | O=C(OCc1ccc([N+](=O)[O-])cc1)c1cc2ccccc2oc1=O | 12 | > 100
2 | N#CCn1c(CCl)nc2ccccc2c1=O | 22.8 | 25.8
3 | CC(C)Nc1nc(NC(C)C)nc(N(C)N)n1 | 32.2 | 47.9
4 | Cc1cc(OCc2cc(C(=O)N(C)CCc3cnn(C)c3)no2)cc(C)c1Cl | 34.5 | 56.2
5 | CCOC(=O)CNC(=O)CNC(=O)c1nn(-c2ccc(OC)c(Cl)c2)c(=O)c2ccccc12 | 38 | > 100
6 | Nc1ccc(N=Nc2ccccc2)c2cccnc12 | 34.7 | 64.2
7 | CN(C(=O)COC(=O)c1ccc([N+](=O)[O-])cc1Cl)C1CCCCC1 | 19.2 | > 100
8 | COC(=O)c1[nH]c2cc(OC)ccc2c1NC(=O)CN1CCN(c2cccc(C)c2)C(C)C1 (stereo not given) | 38.1 | 50.9
9 | O=C(C[C@@H]1C/C=C\C[C@H](NC(=O)OCC2c3ccccc3-c3ccccc32)C(=O)OC[C@H]2CCCN2C1=O)N[C@@H](CO)Cc1ccccc1 | 27.3 | 37.2
10 | Cc1cccc(OCc2n(CC(=O)OC3CC(C)CCC3C(C)C)c3ccccc3[n+]2C)c1 (stereo not given) | 8.63 | 10.4
11 | C=C1CCC[C@]2(C)C[C@H]3OC(=O)C(CNC(C)CCCC(C)C)[C@H]3CC12 (stereo not given in full) | 23.4 | 26.2
12 | CC1CCc2c(C(=O)Nc3nccs3)csc2C1 (stereo not given) | 41.9 | 80.3
13 | c1ccc(CN2CCN(CCCNc3ccc4nnc(-c5ccccc5)n4n3)CC2)cc1 | 22.1 | 25.3
14 | O=C(CNC(=O)c1ccco1)OCc1ccc(C(=O)Oc2ccccc2)cc1 | 16.6 | 26.6
15 | O=C(CCl)NN=C(c1ccccc1)c1ccccc1 | 1.32 | 2.09
16 | Cc1ccc(C(=O)ONc2ccc(N=O)cc2)cc1 | 57.3 | > 100
17 | CCOC(=O)Oc1c(OC)cc(C(=O)O[C@@H]2C[C@@H]3CN4CCc5c([nH]c6cc(OC)ccc56)[C@H]4C[C@@H]3[C@H](C(=O)OC)[C@H]2OC)cc1OC | 26.5 | 39.1
18 | S=C1SCN(Cc2ccco2)CN1Cc1ccco1 | 43.1 | 54.2
19 | OCC(O)/C=N/Nc1nc(Nc2ccccc2)nc(Nc2ccccc2)n1 (stereo not given) | 14 | 24.1
20 | C/C(=N\NC(=S)Nc1cccc(C)c1)c1cccc(N)c1 | 21.6 | 23.7
21 | Clc1ccc(-c2cc3ccccc3nc2N2CCCC2)cc1 | 71.6 | > 100
22 | O=c1[nH]c(=O)n(Cc2ccccc2)c2nc(-c3ccc(Oc4ccc(F)cc4)c([N+](=O)[O-])c3)n(CCO)c12 | 50.5 | > 100
23 | CCOC(=O)c1c(-c2ccc(OC)cc2)csc1NC(=O)CNCc1ccco1 | 22.3 | 25.5

Row | Structure (SMILES) | IC50 [µM] | IC90 [µM]
24 | Cc1ccc(Cl)cc1N1CCN(CC(=O)NC2CCCc3ccccc32)CC1 (stereo not given) | 35.6 | 51.1
25 | COc1ccc(COC(=O)CCNC(=O)c2ccc(Cl)cc2)cc1 | 71.1 | > 100
26 | O=C(CCl)Nc1sccc1C(=O)c1ccccc1 | 0.45 | 12.6
27 | CCOc1cc(-c2c(C#N)c(=O)[nH]c3c2c(C)nn3-c2ccc(F)cc2)ccc1O | 4.87 | 8.73
28 | Cc1ccc(-n2nnc3c(=O)oc4ccccc4c32)cc1 | 1.88 | > 100
29 | CCOC(=O)c1ccc(-n2c(CCC(=O)O)ccc2-c2cccs2)cc1 | 20.8 | 23.6
30 | Cc1ccc2nc(-c3ccncc3)cc(-c3ccccc3)c2c1 | 43.8 | 48.6
31 | Cn1cnc([N+](=O)[O-])c1Sc1ccc(Br)cc1 | 19.6 | 26.1
32 | O=C(NCCC1=CCCCC1)NC12CC3CC(CC(C3)C1)C2 | < 0.2 | 1.58
33 | CC1CCN(C(=O)C2CCN(c3nnc(-n4cccc4)s3)CC2)CC1 | 3.51 | 6.13
34 | COc1ccc(CN(CCC(c2ccccc2)c2ccc(OC(C)C)cc2)C(=O)CCl)cc1OC (stereo not given) | 15.8 | 23.5
35 | CCOc1ccc(N2CC(=O)Nc3ccccc3NCC2=O)cc1 | 55.7 | 83.1
36 | O=C(NCC1CCN(c2ccc(S(=O)(=O)N3CCOCC3)cc2)CC1)c1ccc(Cl)cc1 | 40.6 | 57
37 | COc1nc(-c2ccccc2)cc(-c2ccc(OC)c(OC)c2)n1 | 86.4 | > 100
38 | CCOc1ccc(-c2[nH]ncc2-c2ccc(Cl)cc2)c(O)c1 | 44.8 | 72.3
39 | O=c1cc(CCl)nc(Cc2c(Cl)cccc2Cl)[nH]1 | 10.5 | > 100
40 | O=C(CCl)Nc1nccs1 | 4.87 | 9.14
41 | CCCCC(=O)/C=C/n1c(=S)oc2ccccc21 | – | > 100
42 | COc1ccc(/C=C/CN2CCC(CO)(Cc3ccccc3Cl)CC2)cc1 | 24.3 | 27.5
43 | Cc1c(Cl)ccc2sc(N3CCN(C(=O)C4=COCCO4)CC3)nc12 | 22.5 | 30.6
44 | O=C(/C=C/c1cc(Br)ccc1O)c1ccco1 | 15.7 | 20.4
45 | C=CCOc1ccc2c(c1)C(=NO)c1cc(OCC=C)ccc1-2 | 28 | > 100
46 | Cc1cc2c(cc1C)CSC(c1c(O)ccc3ccccc13)SC2 | 61.2 | > 100

Row | Structure (SMILES) | IC50 [µM] | IC90 [µM]
47 | CCOC(=O)CSc1nsc(SCC(=O)OCC)c1C#N | 11.9 | 13.5
48 | Cc1nc(N2CCC(C)CC2)c2oc3ccccc3c2n1 | 22.6 | 30.3
49 | CCC(C)(C)c1ccc(OCCCC[n+]2ccc(C)cc2)c(C(C)(C)CC)c1 | 12 | 13.8
50 | Cc1cc(-c2nnc3n2CCCCC3)c(C)n1-c1ccccc1 | 45.3 | 73.8
51 | CNC(CC(=O)c1ccc([N+](=O)[O-])cc1)C(Cl)(Cl)Cl (stereo not given) | 5.37 | 7.81
52 | CC1=CC(=O)C(C(C)C)=C/C1=N/OS(=O)(=O)c1ccccc1 | 4.28 | 7.65
53 | COc1cccc(C(=O)NC2CC3CCCC(C2)N3CC(=O)Nc2ccc(N(C)C)cc2)c1 (stereo not given) | 21.8 | 24.4
54 | CCCCOC(=O)CSc1nnc(-c2ccc(Cl)cc2Cl)o1 | < 0.2 | 7.21
55 | CCOC(=O)c1cc(-c2ccccc2)nc2c1c(C)nn2-c1ccccn1 | 19.3 | 44.3
56 | COc1cc(C#Cc2c(-c3cncn3C)n(C)c3ccc(-c4cnc(N5CCOCC5)nc4)cc23)cc(OC)c1 | 49.5 | 55
57 | CCCC(=O)Nc1ccc(C(=O)/C=C/c2ccc(SC)cc2)cc1 | 64.3 | 85.4
58 | O=C(Cc1ccccc1)N/N=C/c1ccc2cccc(O)c2n1 | 11.3 | 12.6
59 | CN(Cc1ccco1)c1ncnc2ccc(-c3ccc4c(ccn4C)c3)cc12 | 40.9 | 59.4
60 | CCCCCCCNC(=O)c1ccc(N2CCC3(CC2)OCCO3)c([N+](=O)[O-])c1 | 48.3 | 67.2
61 | Cn1cc(/C=C2\C(=O)NC(=O)N(c3ccccc3)C2=O)c2ccccc21 | 42 | > 100
62 | CCOC(=O)c1cc(C)nc(Sc2ccc(C)cc2)c1C#N | 5.32 | 7.74
63 | Cc1nonc1OCCNCCNc1ccc([N+](=O)[O-])c2cccnc12 | 17.7 | 31.4
64 | O=C(OCC(=O)N1CCCc2ccccc21)c1ccc(S(=O)(=O)C(F)F)cc1 | 37.9 | 49.2
65 | COc1ccc(OC)c(CN2CCN(C(=O)CNC(=O)c3ccc(C(C)(C)C)cc3)CC2)c1 | 63.8 | 91.1
66 | O=C(c1cc2nc(-c3ccc(F)cc3)cc(C(F)(F)F)n2n1)N1CCCCC1c1cccnc1 (stereo not given) | 20.7 | 29.2
67 | Cc1ccc(-n2[nH]c(C)c(C=Nc3ccc(S(=O)(=O)Nc4nccs4)cc3)c2=O)c(C)c1 | 6.3 | 12
68 | Nc1c2c(nc3sc4c(c13)CCCCC4)CCCC2 | 3.12 | 8.41
69 | CCCC1CC(C)(c2csc(Nc3ccc(OCC)cc3)n2)OC1=O (stereo not given) | 35.3 | 44.9

Row | Structure (SMILES) | IC50 [µM] | IC90 [µM]
70 | CCc1nc2ccccc2c(C(=O)Nc2cc(C)ccc2C)c1C | – | > 100
71 | Cc1ccc(C2(c3ccc(C)cc3)CC2C(=O)Nc2ccc([N+](=O)[O-])cc2O)cc1 (stereo not given) | 18.8 | 23.6
72 | COc1ccc(NC(=O)/C(Cl)=C(/Cl)S(=O)Cc2ccc(C)cc2)cn1 (stereo not given) | < 0.2 | 0.36
73 | COc1ccc(-c2oc(NC(=O)CCl)c(C#N)c2-c2ccc(OC)cc2)cc1 | 43 | 61.7
74 | CCOC(=O)C1CCCN(c2ncnc3c2cnn3-c2ccc(OC)cc2)C1 (stereo not given) | 5.82 | 10.3
75 | S=C(NN=C1CCN(Cc2ccccc2)CC1)NC1CCCCC1 | 43.6 | 47
76 | O=C(c1cnn2c(C(F)F)cc(-c3ccccc3)nc12)N1CCc2ccccc2C1 | 35.4 | 48.6
77 | COc1ccc(CCNc2cc(-c3ccccc3)nc3ncnn23)cc1 | < 0.2 | 27.3
78 | O=c1c2c(-c3ccccc3)csc2ncn1/N=C/c1ccc(O)c([N+](=O)[O-])c1 | 37.1 | 59
79 | C=CCNC(=O)c1onc(CCl)c1C(=O)OC | 5.76 | 14.2
80 | Cc1ccc(S(=O)(=O)N2CCC(C(=O)OCc3ccccc3)CC2)cc1C | 46.5 | 52.2
81 | CCOC(=O)c1cc(/C(C)=N/OC(=O)c2ccc(C(C)(C)C)cc2)on1 | 22.9 | 26.8
82 | CCOC(=O)N1CCN(C(=O)CSc2nnc(-c3ccc(Cl)s3)o2)CC1 | 25.2 | 29.9
83 | C/C(=N\N=C(/N)SC1CC(=O)N(c2ccc(Cl)cc2)C1=O)c1cccs1 (stereo not given) | 32.8 | > 100
84 | CCCCCCN=C1CC(C)(C)CC(=O)/C1=C(/O)CCC | 71 | > 100
85 | Cc1cc2c(N=O)c(NO)ccc2[nH]1 | 11.9 | 18.2
86 | CC(CC(=O)Nc1ccc(Cl)c([N+](=O)[O-])c1)c1ccccc1 (stereo not given) | 18 | 29.4
87 | O=c1oc(-c2cccs2)nc2c1cnn2-c1ccccc1 | – | > 100
88 | CCCc1cnc(NCCNCC(O)COc2ccc(Cl)c(Cl)c2)nc1 (stereo not given) | 24.2 | 27.7
89 | CCOCCN1CCN(c2c(CC)c(C)nc3cc(-c4cc(OC)cc(OC)c4)nn23)CC1 | 24.5 | 38.2

From PubChem BioAssay AID449764 (Southern Research Specialized Biocontainment Screening …, 2010)
